In PMC7918793, “5-Methoxybenzothiophene-2-Carboxamides as Inhibitors of Clk1/4: Optimization of Selectivity and Cellular Potency” (Molecules, 2021):

Tests used:
Assay in all cases: SelectScreen kinase profiling
Format in all cases: biochemical
CDK5/p25 = CDK5/p25 (Homo sapiens, UniProt Q00535)
Description: (§1) Active human Clk1 and Clk2 were purchased from Life Technologies (Catalog No. PV3315 and PV4279, respectively). RS repeat substrate peptide for Clk1 ([…]) was custom synthesized at the Department of Medical Biochemistry and Molecular Biology, Saarland University, Homburg, Germany. Kinase Inhibition assays for Clk1 and Clk2 were performed as described previously, in the presence of 15 μM ATP [20]. The calculated IC50 values are representative of at least two independent determinations performed in duplicates. The larger panel of kinases shown in Table 4 was screened by the SelectScreen Kinase Profiling Service, Thermo Fisher Scientific, Paisley, UK.

CK2 α1 = CK2 α1 (Homo sapiens, UniProt P68400)
Description: as §1

DYRK1B = DYRK1B (Homo sapiens, UniProt Q9Y463)
Description: as §1

Haspin = molecular target: T1, Haspin (Homo sapiens, UniProt Q8TF76)
T1 sequence (Q8TF76 1-798): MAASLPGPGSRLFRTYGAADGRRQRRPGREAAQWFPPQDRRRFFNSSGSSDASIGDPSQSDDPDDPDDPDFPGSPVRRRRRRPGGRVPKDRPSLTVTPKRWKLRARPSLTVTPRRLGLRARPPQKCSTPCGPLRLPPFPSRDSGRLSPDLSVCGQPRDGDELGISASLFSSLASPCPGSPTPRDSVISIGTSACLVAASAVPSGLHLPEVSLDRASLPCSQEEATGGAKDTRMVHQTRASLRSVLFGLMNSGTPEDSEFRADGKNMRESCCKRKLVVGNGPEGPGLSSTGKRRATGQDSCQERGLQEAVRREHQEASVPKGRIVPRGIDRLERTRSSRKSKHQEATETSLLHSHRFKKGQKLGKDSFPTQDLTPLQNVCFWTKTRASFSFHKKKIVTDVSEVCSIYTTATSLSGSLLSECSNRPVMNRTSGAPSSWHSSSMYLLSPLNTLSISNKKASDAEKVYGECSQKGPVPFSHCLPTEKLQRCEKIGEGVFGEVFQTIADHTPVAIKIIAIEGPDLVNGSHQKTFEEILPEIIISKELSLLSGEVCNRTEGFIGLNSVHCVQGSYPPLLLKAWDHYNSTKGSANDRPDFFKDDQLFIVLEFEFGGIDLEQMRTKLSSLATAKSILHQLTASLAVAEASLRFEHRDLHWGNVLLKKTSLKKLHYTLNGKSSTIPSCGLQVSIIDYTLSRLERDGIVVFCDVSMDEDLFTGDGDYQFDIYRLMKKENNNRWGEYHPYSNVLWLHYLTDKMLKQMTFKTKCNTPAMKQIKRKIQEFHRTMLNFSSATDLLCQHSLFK
Description: as §1

STK17A (DRAK1) = molecular target: T2, STK17A (DRAK1) (Homo sapiens, UniProt Q9UEE5)
T2 sequence (Q9UEE5 1-414): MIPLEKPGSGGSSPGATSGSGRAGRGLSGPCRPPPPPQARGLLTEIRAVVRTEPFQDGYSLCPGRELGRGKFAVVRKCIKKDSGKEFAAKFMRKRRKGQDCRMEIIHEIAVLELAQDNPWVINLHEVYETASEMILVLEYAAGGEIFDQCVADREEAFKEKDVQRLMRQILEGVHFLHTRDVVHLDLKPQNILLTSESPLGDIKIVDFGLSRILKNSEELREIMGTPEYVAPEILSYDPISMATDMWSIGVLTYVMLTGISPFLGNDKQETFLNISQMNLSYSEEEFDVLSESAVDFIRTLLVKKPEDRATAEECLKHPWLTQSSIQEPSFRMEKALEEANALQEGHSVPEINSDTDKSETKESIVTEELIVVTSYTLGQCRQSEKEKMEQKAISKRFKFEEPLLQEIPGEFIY
Description: as §1

Sequence of DYRK1B (Q9Y463 whole entry): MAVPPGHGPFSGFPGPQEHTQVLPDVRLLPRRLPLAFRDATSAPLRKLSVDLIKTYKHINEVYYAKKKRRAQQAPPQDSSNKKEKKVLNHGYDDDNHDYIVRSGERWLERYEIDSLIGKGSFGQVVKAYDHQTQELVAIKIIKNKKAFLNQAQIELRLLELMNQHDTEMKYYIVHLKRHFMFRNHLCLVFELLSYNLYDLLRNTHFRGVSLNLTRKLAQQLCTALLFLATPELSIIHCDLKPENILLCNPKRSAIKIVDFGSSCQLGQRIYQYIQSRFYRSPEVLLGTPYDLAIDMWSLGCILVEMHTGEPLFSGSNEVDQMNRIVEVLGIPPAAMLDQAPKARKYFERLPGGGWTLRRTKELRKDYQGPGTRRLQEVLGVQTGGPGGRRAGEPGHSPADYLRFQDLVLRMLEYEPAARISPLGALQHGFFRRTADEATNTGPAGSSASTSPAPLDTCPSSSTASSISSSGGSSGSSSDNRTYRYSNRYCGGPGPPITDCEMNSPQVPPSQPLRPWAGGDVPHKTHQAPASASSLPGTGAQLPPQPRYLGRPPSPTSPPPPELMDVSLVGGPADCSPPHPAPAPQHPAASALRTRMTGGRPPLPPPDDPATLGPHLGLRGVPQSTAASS
Sequence of CDK5/p25 (Q00535 whole entry): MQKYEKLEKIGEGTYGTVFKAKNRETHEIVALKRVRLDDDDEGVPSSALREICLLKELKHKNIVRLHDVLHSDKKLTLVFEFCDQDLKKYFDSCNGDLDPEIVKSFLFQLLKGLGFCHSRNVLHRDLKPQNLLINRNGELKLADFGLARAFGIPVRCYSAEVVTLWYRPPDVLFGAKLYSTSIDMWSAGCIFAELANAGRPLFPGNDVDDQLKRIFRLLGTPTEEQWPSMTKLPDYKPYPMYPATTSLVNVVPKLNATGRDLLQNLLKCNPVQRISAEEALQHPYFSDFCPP
Sequence of CDK5/p25 (Q15078 99-307 partner limits assumed): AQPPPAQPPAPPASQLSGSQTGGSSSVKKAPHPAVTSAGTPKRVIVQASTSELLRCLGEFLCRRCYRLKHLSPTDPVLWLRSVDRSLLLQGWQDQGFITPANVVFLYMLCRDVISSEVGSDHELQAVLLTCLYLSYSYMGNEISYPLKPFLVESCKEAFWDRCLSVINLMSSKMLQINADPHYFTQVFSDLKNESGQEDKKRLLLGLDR
Sequence of CK2 α1 (P68400 whole entry): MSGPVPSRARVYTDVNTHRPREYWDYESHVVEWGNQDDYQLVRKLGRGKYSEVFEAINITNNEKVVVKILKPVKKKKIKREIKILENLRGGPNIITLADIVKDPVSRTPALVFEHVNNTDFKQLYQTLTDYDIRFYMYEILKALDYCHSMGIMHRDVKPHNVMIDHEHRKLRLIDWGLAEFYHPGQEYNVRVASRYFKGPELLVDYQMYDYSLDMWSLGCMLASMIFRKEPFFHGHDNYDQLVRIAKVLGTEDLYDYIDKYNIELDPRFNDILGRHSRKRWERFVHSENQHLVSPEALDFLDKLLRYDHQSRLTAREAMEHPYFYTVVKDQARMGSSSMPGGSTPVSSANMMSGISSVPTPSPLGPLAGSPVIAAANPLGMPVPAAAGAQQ

COc1ccc2sc(C(=O)N(C)Cc3cc(F)cc(F)c3)cc2c1 [Compound 10b, N-Methyl-N-(3,5-difluorobenzyl)-5-methoxybenzothiophene-2-carboxamide] was tested, and the inhibition at 1 µM (CDK5/p25) was 3%, the inhibition at 1 µM (CK2 α1) was 5% and the inhibition at 1 µM (DYRK1B) was 70%. It also gave an inhibition at 1 µM (Haspin) of 0% and an inhibition at 1 µM (STK17A (DRAK1)) of 25%.
